Data taken from patent publication US20180236080A1, “FAST-ACTING INSULIN COMPOSITION COMPRISING A CITRIC ACID SALT” (ADOCIA, priority 2017, published 2018).

What was measured:
[1] = biological target: hexameric form R6 of insulin aspart (Homo sapiens, UniProt P01308, P52D); details: insulin aspart 100 U/ml, FIG. 9 and FIG. 10
From the text: The loss of the signal at 240 nm is related to a destabilization of the hexameric form R6 and the passage from R6 form to T6 form.
FIG. 9 describes the CD signal at 240 nm (deg·cm^2·dmol^−1) on the ordinate and on the abscissa:
Circular dichroism has been performed at 240 nm on the following compositions (FIG. 10):

[2] = biological target: hexameric R6 form of insulin lispro (Homo sapiens, UniProt P01308, K53P/P52K); details: insulin lispro 100 IU/ml, FIG. 5 and FIG. 6
From the text: The loss of the signal at 240 nm is related to a destabilization of the hexameric R6 form and the passage from the R6 form to the T6 form.

[3] = at 4° C.; cited from earlier work
[4] = cited from earlier work

hexameric form R6 of insulin aspart, sequence (P01308 25-54 P52D limits assumed): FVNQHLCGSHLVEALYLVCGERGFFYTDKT
hexameric form R6 of insulin aspart, sequence (P01308 90-110 limits assumed): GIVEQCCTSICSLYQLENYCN
hexameric R6 form of insulin lispro, sequence (P01308 25-54 P52K/K53P limits assumed): as the sequence (P01308 25-54 P52D limits assumed) above, with D28K, K29P counted along it

| Compound | Impact on the CD signal at 240 nm / R6 form of insulin aspart [1] | Impact on the CD signal at 240 nm / R6 form of insulin lispro [2] | Stability in the form of hexamers [3] [years] | Delay of action compared to a fast-acting insulin analog ([4]; dissociation of hexamers into dimers and monomers, Brange J. et al. 1999) [minutes] | Time after which a hypoglycemic effect occurs ([4]; injected subcutaneously) [min] |
| --- | --- | --- | --- | --- | --- |
| O=C(O)CN(CCN(CC(=O)O)CC(=O)O)CC(=O)O [EDTA] | completely deconstructs the R6 form | completely deconstructs the R6 form |  |  |  |
| human insulin |  |  | ~2 | ~20 | 60 |
